In brackets after ≈: the same amount, converted by molar mass.
Legend:
Format in all cases: functional
[1] = system: Candida albicans; experiment: In vitro Minimum inhibitory concentration (MIC) for antifungal activity against Candida albicans 1208
[2] = system: Candida albicans; experiment: In vitro Minimum inhibitory concentration (MIC) for antifungal activity against Candida albicans 2005
[3] = system: Candida albicans; experiment: In vitro Minimum inhibitory concentration (MIC) for antifungal activity against Candida albicans 2402
[4] = system: Kluyveromyces marxianus; experiment: In vitro Minimum inhibitory concentration (MIC) for antifungal activity against Candida pseudotropicalis 2371
[5] = system: Candida tropicalis; experiment: In vitro Minimum inhibitory concentration (MIC) for antifungal activity against Candida tropicalis 2808
[6] = system: Cryptococcus neoformans; experiment: In vitro Minimum inhibitory concentration (MIC) for antifungal activity against Cryptococcus neoformans 2867
[7] = system: Candida albicans; experiment: In vitro Minimum inhibitory concentration (MIC) for antifungal activity against Candida albicans 1208E
[8] = system: Candida albicans; experiment: In vitro Minimum inhibitory concentration (MIC) for antifungal activity against Candida albicans 2402E
[9] = system: Kluyveromyces marxianus; experiment: In vitro Minimum inhibitory concentration (MIC) for antifungal activity against Candida pseudotropicalis 2371E
[10] = system: Candida tropicalis; experiment: In vitro Minimum inhibitory concentration (MIC) for antifungal activity against Candida tropicalis 2808E
[11] = system: Cryptococcus neoformans; experiment: In vitro Minimum inhibitory concentration (MIC) for antifungal activity against Cryptococcus neoformans 2867E
[12] = system: Candida albicans; experiment: In vitro Minimum inhibitory concentration (MIC) for antifungal activity against Candida albicans 2005E

Compound: CCCCCCCCCC(=O)OC1C(O)[C@H](OCC23C[C@@H]4[C@H](C)CC[C@H]4C4(C=O)CC2C=C(C(C)C)C34C(=O)O)O[C@H](C)[C@H]1OC (single isomer, unassigned)
- MIC [1]: 1 µg/mL (≈ 1.55 µM)
- MIC [2]: 0.25 µg/mL (≈ 0.386 µM)
- MIC [3]: 1 µg/mL (≈ 1.55 µM)
- MIC [4]: 0.25 µg/mL (≈ 0.386 µM)
- MIC [5]: 8 µg/mL (≈ 12.4 µM)
- MIC [6]: 1 µg/mL (≈ 1.55 µM)

Compound: CCCCC(C)C(=O)OC1C(O)[C@H](OCC23C[C@@H]4[C@H](C)CC[C@H]4C4(C=O)CC2C=C(C(C)C)C34C(=O)O)O[C@H](C)[C@H]1OC (single isomer, unassigned)
- MIC [1]: 0.12 µg/mL (≈ 0.198 µM)
- MIC [2]: 0.008 µg/mL (≈ 0.0132 µM)
- MIC [3]: 0.06 µg/mL (≈ 0.0992 µM)
- MIC [4]: 0.06 µg/mL (≈ 0.0992 µM)
- MIC [5]: 0.25 µg/mL (≈ 0.413 µM)
- MIC [6]: 8 µg/mL (≈ 13.2 µM)

Compound: CCC/C=C(\C)C(=O)O[C@H]1C(O)[C@H](OCC23C[C@@H]4[C@H](C)CC[C@H]4C4(C=O)CC2C=C(C(C)C)C34C(=O)O)O[C@H](C)[C@H]1OC (some centres undefined)
- MIC [1]: 1 µg/mL (≈ 1.66 µM)
- MIC [2]: 0.015 µg/mL (≈ 0.0249 µM)
- MIC [3]: 0.5 µg/mL (≈ 0.83 µM)
- MIC [4]: 0.12 µg/mL (≈ 0.199 µM)
- MIC [5]: 0.5 µg/mL (≈ 0.83 µM)
- MIC [6]: 62 µg/mL (≈ 103 µM)

Compound: COCC(=O)OC1C(O)[C@H](OCC23C[C@@H]4[C@H](C)CC[C@H]4C4(C=O)CC2C=C(C(C)C)C34C(=O)O)O[C@H](C)[C@H]1OC (single isomer, unassigned)
- MIC [1]: > 125 µg/mL
- MIC [2]: 62 µg/mL (≈ 110 µM)
- MIC [3]: 125 µg/mL (≈ 221 µM)
- MIC [4]: 16 µg/mL (≈ 28.3 µM)
- MIC [5]: > 125 µg/mL
- MIC [6]: 125 µg/mL (≈ 221 µM)

Compound: CO[C@H]1C(OC(=O)CCCCCl)C(O)[C@H](OCC23C[C@@H]4[C@H](C)CC[C@H]4C4(C=O)CC2C=C(C(C)C)C34C(=O)O)O[C@@H]1C (single isomer, unassigned)
- MIC [1]: 2 µg/mL (≈ 3.27 µM)
- MIC [2]: 0.12 µg/mL (≈ 0.196 µM)
- MIC [3]: 2 µg/mL (≈ 3.27 µM)
- MIC [4]: 0.25 µg/mL (≈ 0.409 µM)
- MIC [5]: 1 µg/mL (≈ 1.64 µM)
- MIC [6]: 16 µg/mL (≈ 26.2 µM)

Compound: CO[C@H]1[C@@H](OC(=O)OCc2ccccc2)[C@H](OC(=O)OCc2ccccc2)[C@H](OCC23C[C@@H]4[C@H](C)CC[C@H]4C4(C=O)CC2C=C(C(C)C)C34C(=O)O)O[C@@H]1C (some centres undefined)
- MIC [7]: > 62 µg/mL
- MIC [8]: > 62 µg/mL
- MIC [9]: > 62 µg/mL
- MIC [10]: > 62 µg/mL
- MIC [11]: > 62 µg/mL
- MIC [12]: 62 µg/mL (≈ 81.5 µM)

Compound: CCCCCC(=O)O[C@@H]1[C@H](OCC23C[C@@H]4[C@H](C)CC[C@H]4C4(C=O)CC2C=C(C(C)C)C34C(=O)O)O[C@H](C)C(OC)[C@H]1O (single isomer, unassigned)
- MIC [7]: 31 µg/mL (≈ 52.5 µM)
- MIC [8]: 31 µg/mL (≈ 52.5 µM)
- MIC [9]: 31 µg/mL (≈ 52.5 µM)
- MIC [10]: 62 µg/mL (≈ 105 µM)
- MIC [11]: 31 µg/mL (≈ 52.5 µM)
- MIC [12]: 8 µg/mL (≈ 13.5 µM)

Compound: CCCC(=O)OC1C(O)[C@H](OCC23C[C@@H]4[C@H](C)CC[C@H]4C4(C=O)CC2C=C(C(C)C)C34C(=O)O)O[C@H](C)[C@H]1OC (single isomer, unassigned)
- MIC [1]: 1 µg/mL (≈ 1.78 µM)
- MIC [2]: 0.25 µg/mL (≈ 0.444 µM)
- MIC [3]: 2 µg/mL (≈ 3.55 µM)
- MIC [4]: 0.5 µg/mL (≈ 0.889 µM)
- MIC [5]: 2 µg/mL (≈ 3.55 µM)
- MIC [6]: > 125 µg/mL

Compound: CCCCCCCCNC(=O)O[C@H]1C(O)[C@H](OCC23C[C@@H]4[C@H](C)CC[C@H]4C4(C=O)CC2C=C(C(C)C)C34C(=O)O)O[C@H](C)[C@H]1OC (some centres undefined)
- MIC [1]: 4 µg/mL (≈ 6.17 µM)
- MIC [2]: 0.06 µg/mL (≈ 0.0926 µM)
- MIC [3]: 2 µg/mL (≈ 3.09 µM)
- MIC [4]: 1 µg/mL (≈ 1.54 µM)
- MIC [5]: 2 µg/mL (≈ 3.09 µM)
- MIC [6]: 31 µg/mL (≈ 47.9 µM)

Compound: C/C=C/C=C(\C)C(=O)O[C@H]1C(O)[C@H](OCC23C[C@@H]4[C@H](C)CC[C@H]4C4(C=O)CC2C=C(C(C)C)C34C(=O)O)O[C@H](C)[C@H]1OC (some centres undefined)
- MIC [1]: 0.25 µg/mL (≈ 0.416 µM)
- MIC [2]: 0.015 µg/mL (≈ 0.025 µM)
- MIC [3]: 0.03 µg/mL (≈ 0.0499 µM)
- MIC [4]: 0.03 µg/mL (≈ 0.0499 µM)
- MIC [5]: 0.06 µg/mL (≈ 0.0999 µM)
- MIC [6]: 0.25 µg/mL (≈ 0.416 µM)

Compound: CCCCCCCC(=O)OC1C(O)[C@H](OCC23C[C@@H]4[C@H](C)CC[C@H]4C4(C=O)CC2C=C(C(C)C)C34C(=O)O)O[C@H](C)[C@H]1OC (single isomer, unassigned)
- MIC [1]: 0.06 µg/mL (≈ 0.097 µM)
- MIC [2]: < 0.001 µg/mL
- MIC [3]: 0.03 µg/mL (≈ 0.0485 µM)
- MIC [4]: 0.004 µg/mL (≈ 0.00646 µM)
- MIC [5]: 0.06 µg/mL (≈ 0.097 µM)
- MIC [6]: 0.25 µg/mL (≈ 0.404 µM)

Compound: CO[C@H]1C(OC(=O)c2ccco2)C(O)[C@H](OCC23C[C@@H]4[C@H](C)CC[C@H]4C4(C=O)CC2C=C(C(C)C)C34C(=O)O)O[C@@H]1C (single isomer, unassigned)
- MIC [1]: 16 µg/mL (≈ 27.3 µM)
- MIC [2]: 2 µg/mL (≈ 3.41 µM)
- MIC [3]: 16 µg/mL (≈ 27.3 µM)
- MIC [4]: 4 µg/mL (≈ 6.82 µM)
- MIC [5]: 8 µg/mL (≈ 13.6 µM)
- MIC [6]: > 125 µg/mL

Compound: COC1C(O)C(O)[C@H](OCC23C[C@@H]4[C@H](C)CC[C@H]4C4(C=O)CC2C=C(C(C)C)C34C(=O)O)O[C@@H]1C (single isomer, unassigned)
- MIC [1]: 31 µg/mL (≈ 62.9 µM)
- MIC [2]: 8 µg/mL (≈ 16.2 µM)
- MIC [3]: 31 µg/mL (≈ 62.9 µM)
- MIC [4]: 16 µg/mL (≈ 32.5 µM)
- MIC [5]: 16 µg/mL (≈ 32.5 µM)
- MIC [6]: > 125 µg/mL

Compound: CCCCCCOC1[C@H](O)[C@H](OCC23C[C@@H]4[C@H](C)CC[C@H]4C4(C=O)CC2C=C(C(C)C)C34C(=O)O)O[C@H](C)[C@H]1OC (single isomer, unassigned)
- MIC [7]: 4 µg/mL (≈ 6.94 µM)
- MIC [8]: 2 µg/mL (≈ 3.47 µM)
- MIC [9]: 0.25 µg/mL (≈ 0.433 µM)
- MIC [10]: 1 µg/mL (≈ 1.73 µM)
- MIC [11]: 31 µg/mL (≈ 53.7 µM)
- MIC [12]: 0.25 µg/mL (≈ 0.433 µM)

Compound: CCCCCCCCOC(=O)O[C@H]1C(O)[C@H](OCC23C[C@@H]4[C@H](C)CC[C@H]4C4(C=O)CC2C=C(C(C)C)C34C(=O)O)O[C@H](C)[C@H]1OC (some centres undefined)
- MIC [1]: 1 µg/mL (≈ 1.54 µM)
- MIC [2]: 0.25 µg/mL (≈ 0.385 µM)
- MIC [3]: 0.5 µg/mL (≈ 0.771 µM)
- MIC [4]: 0.12 µg/mL (≈ 0.185 µM)
- MIC [5]: 8 µg/mL (≈ 12.3 µM)
- MIC [6]: 8 µg/mL (≈ 12.3 µM)

Compound: CO[C@H]1C(OC(=O)c2ccccc2)C(O)[C@H](OCC23C[C@@H]4[C@H](C)CC[C@H]4C4(C=O)CC2C=C(C(C)C)C34C(=O)O)O[C@@H]1C (single isomer, unassigned)
- MIC [1]: 1 µg/mL (≈ 1.68 µM)
- MIC [2]: 0.12 µg/mL (≈ 0.201 µM)
- MIC [3]: 1 µg/mL (≈ 1.68 µM)
- MIC [4]: 0.25 µg/mL (≈ 0.419 µM)
- MIC [5]: 0.5 µg/mL (≈ 0.838 µM)
- MIC [6]: > 125 µg/mL

Compound: CO[C@@H]1[C@@H](C)O[C@@H](OCC23C[C@@H]4[C@H](C)CC[C@H]4C4(C=O)CC2C=C(C(C)C)C34C(=O)O)C(O)[C@@H]1OC(=O)OCc1ccccc1 (some centres undefined)
- MIC [1]: 8 µg/mL (≈ 12.8 µM)
- MIC [2]: 2 µg/mL (≈ 3.19 µM)
- MIC [3]: 8 µg/mL (≈ 12.8 µM)
- MIC [4]: 2 µg/mL (≈ 3.19 µM)
- MIC [5]: 8 µg/mL (≈ 12.8 µM)
- MIC [6]: > 62 µg/mL

Compound: CCCCCC(=O)OC1C(O)[C@H](OCC23C[C@@H]4[C@H](C)CC[C@H]4C4(C=O)CC2C=C(C(C)C)C34C(=O)O)O[C@H](C)[C@H]1OC (single isomer, unassigned)
- MIC [1]: 0.25 µg/mL (≈ 0.423 µM)
- MIC [2]: 0.015 µg/mL (≈ 0.0254 µM)
- MIC [3]: 0.25 µg/mL (≈ 0.423 µM)
- MIC [4]: 0.01 µg/mL (≈ 0.0169 µM)
- MIC [5]: 0.03 µg/mL (≈ 0.0508 µM)
- MIC [6]: 16 µg/mL (≈ 27.1 µM)

Compound: CCCCCC(=O)O[C@H]1[C@H](OC(=O)CCCCC)[C@H](OCC23C[C@@H]4[C@H](C)CC[C@H]4C4(C=O)CC2C=C(C(C)C)C34C(=O)O)O[C@H](C)[C@H]1OC (some centres undefined)
- MIC [7]: 8 µg/mL (≈ 11.6 µM)
- MIC [8]: 8 µg/mL (≈ 11.6 µM)
- MIC [9]: > 125 µg/mL
- MIC [10]: > 125 µg/mL
- MIC [11]: > 125 µg/mL
- MIC [12]: 4 µg/mL (≈ 5.81 µM)
